The results in this text go back to US11964967B2, “Cardiac sarcomere inhibitors” (Cytokinetics, Inc., priority 2018, dated 2024).

The target of the test is T1, bovine cardiac myofibrils (Bos taurus, UniProt Q9BE39).
T1 construct: full-length cardiac myosin in the context of the native sarcomere; from tissue; host or cells: bovine cardiac left ventricular tissue, homogenized with detergent (triton X-100)
In words: Skinned bovine cardiac myofibril ATPase assay (PK/LDH-coupled). It is filed as biochemical. The following applies: inhibition of steady-state ATPase activity of bovine cardiac myofibrils, calcium at 75% activation (pCa75), PM12 buffer pH 6.8; for IC50: read-out: CDMF75 IC50. The procedure: To evaluate the effect of compounds on the ATPase activity of full-length cardiac myosin in the context of the native sarcomere, skinned myofibril assays were performed. Bovine cardiac myofibrils were obtained by homogenizing bovine cardiac left ventricular tissue in the presence of a detergent such as triton X-100. Such treatment removes membranes and a majority of the soluble cytoplasmic proteins but leaves intact the cardiac sarcomeric acto-myosin apparatus. Myofibril preparations retain the ability to hydrolyze ATP in an Ca^2+ regulated manner ATPase activities of such myofibril preparations in the presence and absence of compounds were assayed at Ca^2+ concentrations activating to a defined fraction of the maximal rate (i.e., 25%, 75%). Small molecule agents were assessed for their ability to inhibit the steady-state ATPase activity of bovine cardiac myofibrils using pyruvate kinase and lactate dehydrogenase (PK/LDH)-coupled enzyme system. This assay regenerates myosin-produced ADP into ATP by oxidizing NADH, producing an absorbance change at 340 nm. Prior to testing small molecule agents, the bovine cardiac myofibrils were assessed for their calcium responsiveness and the calcium concentration that achieves either a 50% (pCa50) or 75% (pCa75) activation of the myofibril system was chosen as the final condition for assessing the inhibitory activity of the small molecule agents. All enzymatic activity was measured in a buffered solution containing 12 mM PIPES (piperazine-N,N′-bis(2-ethanesulfonic acid), 2 mM magnesium chloride at pH 6.8 (PM 12 buffer). Final assay conditions were 1 mg/mL of bovine cardiac myofibrils, 4 U/mL pyruvate kinase, 6 U/mL lactate dehydrogenase, 50 μM ATP, 0.1 mg/mL BSA (bovine serum albumin), 10 ppm antifoam, 1 mM DTT, 0.5 mM NADH, 1.5 mM PEP, 0.6 mM EGTA, and an amount of CaCl2) sufficient to achieve either 50% or 75% activation of the myofibril ATPase activity. Results for compounds tested are provided in Table A. Compounds tested were prepared in accordance with the synthetic procedures described herein.

SMILES strings stand for the structures. A value given as a limit tells only on which side of the number the result lay.

T1 sequence (Q9BE39 whole entry): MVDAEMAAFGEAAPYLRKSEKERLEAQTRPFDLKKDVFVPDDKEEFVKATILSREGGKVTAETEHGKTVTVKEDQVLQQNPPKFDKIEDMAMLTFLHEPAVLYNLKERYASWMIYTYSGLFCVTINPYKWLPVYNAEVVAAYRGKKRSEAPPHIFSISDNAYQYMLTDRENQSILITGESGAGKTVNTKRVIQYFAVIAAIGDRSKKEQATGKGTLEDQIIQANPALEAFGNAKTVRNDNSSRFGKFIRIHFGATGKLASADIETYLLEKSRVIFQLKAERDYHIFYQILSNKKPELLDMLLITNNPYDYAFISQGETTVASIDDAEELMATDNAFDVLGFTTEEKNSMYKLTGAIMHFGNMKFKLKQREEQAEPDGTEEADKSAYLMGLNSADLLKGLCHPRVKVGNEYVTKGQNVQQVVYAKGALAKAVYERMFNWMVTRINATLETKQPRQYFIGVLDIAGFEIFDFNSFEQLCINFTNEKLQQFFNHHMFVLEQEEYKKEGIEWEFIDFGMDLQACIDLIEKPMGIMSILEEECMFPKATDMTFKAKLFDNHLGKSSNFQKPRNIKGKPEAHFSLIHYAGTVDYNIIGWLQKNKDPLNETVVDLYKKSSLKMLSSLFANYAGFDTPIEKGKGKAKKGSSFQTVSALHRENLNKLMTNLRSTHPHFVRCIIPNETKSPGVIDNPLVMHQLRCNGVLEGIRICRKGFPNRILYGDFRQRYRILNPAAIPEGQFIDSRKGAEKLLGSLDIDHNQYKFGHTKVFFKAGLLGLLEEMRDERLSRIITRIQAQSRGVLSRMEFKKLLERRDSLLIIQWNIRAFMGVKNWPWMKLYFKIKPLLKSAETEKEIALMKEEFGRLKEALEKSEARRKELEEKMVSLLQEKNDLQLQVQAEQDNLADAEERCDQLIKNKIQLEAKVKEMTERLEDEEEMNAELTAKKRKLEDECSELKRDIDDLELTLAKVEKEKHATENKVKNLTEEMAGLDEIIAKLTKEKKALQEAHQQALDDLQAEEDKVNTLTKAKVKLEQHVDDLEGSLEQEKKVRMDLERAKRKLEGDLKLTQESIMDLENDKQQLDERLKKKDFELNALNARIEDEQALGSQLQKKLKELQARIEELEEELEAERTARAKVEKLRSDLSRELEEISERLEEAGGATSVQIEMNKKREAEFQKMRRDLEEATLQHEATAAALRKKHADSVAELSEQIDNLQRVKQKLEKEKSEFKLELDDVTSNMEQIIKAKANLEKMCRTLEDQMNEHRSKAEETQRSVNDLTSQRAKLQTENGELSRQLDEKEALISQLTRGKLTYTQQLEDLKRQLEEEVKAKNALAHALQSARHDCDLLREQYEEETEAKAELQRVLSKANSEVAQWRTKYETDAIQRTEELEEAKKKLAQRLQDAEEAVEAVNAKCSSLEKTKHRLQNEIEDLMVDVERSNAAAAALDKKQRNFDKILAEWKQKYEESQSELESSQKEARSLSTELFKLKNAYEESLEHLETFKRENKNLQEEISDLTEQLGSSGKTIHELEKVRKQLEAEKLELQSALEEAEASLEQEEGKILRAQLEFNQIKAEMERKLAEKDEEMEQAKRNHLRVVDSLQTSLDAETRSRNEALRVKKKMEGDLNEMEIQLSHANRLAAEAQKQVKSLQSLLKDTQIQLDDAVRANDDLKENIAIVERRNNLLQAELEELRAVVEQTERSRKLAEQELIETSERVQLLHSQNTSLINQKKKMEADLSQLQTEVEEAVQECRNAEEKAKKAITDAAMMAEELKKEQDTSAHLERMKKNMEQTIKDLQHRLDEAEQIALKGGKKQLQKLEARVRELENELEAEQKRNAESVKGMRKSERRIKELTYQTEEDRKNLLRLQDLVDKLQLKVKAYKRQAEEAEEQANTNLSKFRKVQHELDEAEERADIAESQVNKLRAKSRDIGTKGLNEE
T1 sequence (P85100 whole entry partner): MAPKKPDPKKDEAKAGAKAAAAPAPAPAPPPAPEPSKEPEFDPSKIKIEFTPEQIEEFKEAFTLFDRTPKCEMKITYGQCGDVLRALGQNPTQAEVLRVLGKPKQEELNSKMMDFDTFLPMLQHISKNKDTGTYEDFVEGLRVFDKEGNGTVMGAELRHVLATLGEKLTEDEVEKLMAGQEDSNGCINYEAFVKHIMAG
T1 sequence (Q3SZE5 whole entry partner): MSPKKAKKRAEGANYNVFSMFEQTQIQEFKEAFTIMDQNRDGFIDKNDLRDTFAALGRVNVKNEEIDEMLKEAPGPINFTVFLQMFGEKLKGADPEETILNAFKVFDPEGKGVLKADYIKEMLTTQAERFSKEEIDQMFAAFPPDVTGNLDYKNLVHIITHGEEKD

Take `Cc1cc(NC(=O)C2CCc3cc(-c4noc(C(C)C)n4)ccc32)ccn1` (single isomer, unassigned) [Compound 23A]: the “CDMF75 IC15” value was determined as 3.6 µM and the IC50 is 14.6 µM.
Turning to `Cc1cc(NC(=O)C2CCc3cc(-c4noc(C(C)C)n4)ccc32)ccn1` (single isomer, unassigned) [Compound 23B], the “CDMF75 IC15” value was over 39.2 µM and the IC50 was over 39.2 µM.
Regarding `CCc1nc(-c2ccc3c(c2)CCC32COC(=O)N2)no1` (single isomer, unassigned) [Compound 26A], the “CDMF75 IC15” value came to 31.0 µM and the half-inhibitory concentration (IC50) is over 39.2 µM.
The like results for `CCc1nc(-c2ccc3c(c2)CCC32COC(=O)N2)no1` (single isomer, unassigned) [Compound 26B] were, in that order, 0.3 µM and 1.6 µM.
In the case of `Cc1nc(-c2ccc3c(c2)CCC32COC(=O)N2)no1` (single isomer, unassigned) [Compound 29A], the “CDMF75 IC15” value was over 39.2 µM and the IC50 is over 39.2 µM.
The like results for `Cc1nc(-c2ccc3c(c2)CCC32COC(=O)N2)no1` (single isomer, unassigned) [Compound 29B] were, in that order, 2.1 µM and 9.1 µM.
As for `CC(C)c1nc(-c2ccc3c(c2)CCC32COC(=O)N2)no1` (single isomer, unassigned) [Compound 32A], the “CDMF75 IC15” value came to 1.5 µM and the IC50 was 6.3 µM.
The like results for `CC(C)c1nc(-c2ccc3c(c2)CCC32COC(=O)N2)no1` (single isomer, unassigned) [Compound 32B] were, in that order, over 39.2 µM and over 39.2 µM.
Turning to `O=C1NC2(CCc3cc(-c4noc(C5CC5)n4)ccc32)CO1` (single isomer, unassigned) [Compound 35A], the “CDMF75 IC15” value is over 39.2 µM and the IC50 was over 39.2 µM.
For `O=C1NC2(CCc3cc(-c4noc(C5CC5)n4)ccc32)CO1` (single isomer, unassigned) [Compound 35B], the “CDMF75 IC15” value was 0.6 µM and the concentration for half-maximal inhibition (IC50) was 3.4 µM.
For `O=C1NC2(CCc3cc(-c4noc(C(F)F)n4)ccc32)CO1` (single isomer, unassigned) [Compound 38A], the “CDMF75 IC15” value is 1.8 µM and the IC50 amounted to 7.5 µM.
The like results for `O=C1NC2(CCc3cc(-c4noc(C(F)F)n4)ccc32)CO1` (single isomer, unassigned) [Compound 38B] were, in that order, over 39.2 µM and over 39.2 µM.
The corresponding values for `CCc1nc(-c2ccc3c(c2)OCC32COC(=O)N2)no1` (single isomer, unassigned) [Compound 41A] are 0.2 µM and 1 µM.
The like results for `CCc1nc(-c2ccc3c(c2)OCC32COC(=O)N2)no1` (single isomer, unassigned) [Compound 41B] were, in that order, over 39.2 µM and over 39.2 µM.
In the case of `CCc1nc(-c2ccc3c(c2)CCC3C(=O)Nc2cnn(C)c2)no1` (stereo not drawn) [Compound 1, 5-(5-ethyl-1,2,4-oxadiazol-3-yl)-N-(1-methyl-1H-pyrazol-4-yl)-2,3-dihydro-1H-indene-1-carboxamide], the “CDMF75 IC15” value stood at 3.9 µM and the IC50 came to 15.9 µM.

As usually defined, the IC50 is the concentration that inhibits the measured activity by half.
